Key:
[1] = molecular target: T1, HEK293 wild type CFTR membrane fractions (Homo sapiens, UniProt P13569); experiment: Back-Scattering Interferometry (Molecular Sensing) binding to CFTR membrane fractions
T1 construct: expressed in transfected cells; host or cells: HEK293 (membrane fractions)
Protocol: TruBind™ Back-Scattering Interferometry (BSI) (Molecular Sensing GmbH) can be used to determine binding constants of different compounds to CFTR-expressing cells.
HEK293 wild type CFTR and HEK293 control membrane fractions are used as 100 μg (total protein amount) aliquots in 50 mM Tris-HCl pH 7.5, 1 mM EDTA, 10% Glycerol+PIC and stored at −80° C.
The buffer used for the assays is 50 mM Tris-HCl pH 7.5, 1 mM EDTA with 1.2% DMSO. The refractive index of the assay buffer and the compound are matched and then a 2x serial dilution is done in polypropylene dilution reservoirs.
A thawed aliquot of HEK293.CFTRwt as well as a thawed aliquot of HEK293 control membrane fractions is diluted to 10 mL in 50 mM Tris-HCl pH 7.5, 1 mM EDTA with 1.2% DMSO. The refractive index of the assay buffer and the two membrane fractions are matched by adding water to the membrane fractions.
Compound and target are mixed 1:1 in 96-well PCR microtiter plates to a final volume of 150 μL and heat sealed with foil. The assays are allowed to incubate at room temperature for 4 hours before being run on the BSI instrument. Wells are pierced individually prior to sample injection and measurement of BSI signal (each well is analyzed in quadruplicates). […]
The final data for the difference curve is exported to Graphpad Prism® and analyzed using a one-site binding equation to determine a Kd for the assay. […]

F508del-CFTR = molecular target: T2, F508del-CFTR (Homo sapiens, UniProt P13569, DEL508-508); details: patients having F508del-CFTR class II mutation (Flume et al., 2012); cited from earlier work
T2 construct: host or cells: CF patients
T2 sequence (P13569 with tags, fused parts or gaps DEL508-508): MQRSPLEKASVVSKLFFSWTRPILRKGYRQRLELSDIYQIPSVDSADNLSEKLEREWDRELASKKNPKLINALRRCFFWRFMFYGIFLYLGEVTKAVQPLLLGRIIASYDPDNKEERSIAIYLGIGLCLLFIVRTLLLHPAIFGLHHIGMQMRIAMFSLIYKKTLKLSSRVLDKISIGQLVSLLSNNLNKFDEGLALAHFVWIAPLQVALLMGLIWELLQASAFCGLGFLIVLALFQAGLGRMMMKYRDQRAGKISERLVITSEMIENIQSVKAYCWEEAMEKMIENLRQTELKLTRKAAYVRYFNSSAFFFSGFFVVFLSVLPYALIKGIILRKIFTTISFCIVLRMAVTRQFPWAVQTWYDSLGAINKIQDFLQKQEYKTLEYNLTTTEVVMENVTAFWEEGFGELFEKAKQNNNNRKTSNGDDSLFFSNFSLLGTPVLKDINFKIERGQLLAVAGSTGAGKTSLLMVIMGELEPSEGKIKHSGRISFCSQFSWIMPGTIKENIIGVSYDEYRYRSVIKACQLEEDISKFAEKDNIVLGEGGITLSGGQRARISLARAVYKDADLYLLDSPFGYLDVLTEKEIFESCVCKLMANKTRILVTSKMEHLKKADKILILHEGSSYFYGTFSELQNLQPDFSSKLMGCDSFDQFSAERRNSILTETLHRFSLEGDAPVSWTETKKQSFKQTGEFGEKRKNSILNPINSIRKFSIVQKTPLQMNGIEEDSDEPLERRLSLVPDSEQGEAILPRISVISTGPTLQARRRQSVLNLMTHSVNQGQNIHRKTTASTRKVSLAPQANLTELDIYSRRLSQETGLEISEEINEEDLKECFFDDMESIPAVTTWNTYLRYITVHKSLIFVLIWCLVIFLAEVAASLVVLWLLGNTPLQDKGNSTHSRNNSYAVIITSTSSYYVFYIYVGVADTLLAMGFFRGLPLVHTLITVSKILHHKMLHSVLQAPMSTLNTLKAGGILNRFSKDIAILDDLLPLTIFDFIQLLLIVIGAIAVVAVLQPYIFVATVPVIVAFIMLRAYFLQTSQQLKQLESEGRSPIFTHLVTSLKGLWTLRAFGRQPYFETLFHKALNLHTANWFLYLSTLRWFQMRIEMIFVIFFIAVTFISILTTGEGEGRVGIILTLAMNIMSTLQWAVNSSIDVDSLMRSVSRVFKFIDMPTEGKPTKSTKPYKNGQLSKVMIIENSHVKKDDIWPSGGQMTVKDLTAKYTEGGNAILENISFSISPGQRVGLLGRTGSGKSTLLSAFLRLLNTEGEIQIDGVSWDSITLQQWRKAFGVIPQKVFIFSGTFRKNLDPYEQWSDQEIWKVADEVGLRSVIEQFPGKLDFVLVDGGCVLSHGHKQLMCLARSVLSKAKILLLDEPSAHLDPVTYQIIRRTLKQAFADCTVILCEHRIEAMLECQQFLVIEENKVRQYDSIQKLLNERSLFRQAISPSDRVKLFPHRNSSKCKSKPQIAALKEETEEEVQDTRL

CFTR = details: patients with CF (Wilschanski et al., 2003); cited from earlier work

T1 sequence (P13569 whole entry): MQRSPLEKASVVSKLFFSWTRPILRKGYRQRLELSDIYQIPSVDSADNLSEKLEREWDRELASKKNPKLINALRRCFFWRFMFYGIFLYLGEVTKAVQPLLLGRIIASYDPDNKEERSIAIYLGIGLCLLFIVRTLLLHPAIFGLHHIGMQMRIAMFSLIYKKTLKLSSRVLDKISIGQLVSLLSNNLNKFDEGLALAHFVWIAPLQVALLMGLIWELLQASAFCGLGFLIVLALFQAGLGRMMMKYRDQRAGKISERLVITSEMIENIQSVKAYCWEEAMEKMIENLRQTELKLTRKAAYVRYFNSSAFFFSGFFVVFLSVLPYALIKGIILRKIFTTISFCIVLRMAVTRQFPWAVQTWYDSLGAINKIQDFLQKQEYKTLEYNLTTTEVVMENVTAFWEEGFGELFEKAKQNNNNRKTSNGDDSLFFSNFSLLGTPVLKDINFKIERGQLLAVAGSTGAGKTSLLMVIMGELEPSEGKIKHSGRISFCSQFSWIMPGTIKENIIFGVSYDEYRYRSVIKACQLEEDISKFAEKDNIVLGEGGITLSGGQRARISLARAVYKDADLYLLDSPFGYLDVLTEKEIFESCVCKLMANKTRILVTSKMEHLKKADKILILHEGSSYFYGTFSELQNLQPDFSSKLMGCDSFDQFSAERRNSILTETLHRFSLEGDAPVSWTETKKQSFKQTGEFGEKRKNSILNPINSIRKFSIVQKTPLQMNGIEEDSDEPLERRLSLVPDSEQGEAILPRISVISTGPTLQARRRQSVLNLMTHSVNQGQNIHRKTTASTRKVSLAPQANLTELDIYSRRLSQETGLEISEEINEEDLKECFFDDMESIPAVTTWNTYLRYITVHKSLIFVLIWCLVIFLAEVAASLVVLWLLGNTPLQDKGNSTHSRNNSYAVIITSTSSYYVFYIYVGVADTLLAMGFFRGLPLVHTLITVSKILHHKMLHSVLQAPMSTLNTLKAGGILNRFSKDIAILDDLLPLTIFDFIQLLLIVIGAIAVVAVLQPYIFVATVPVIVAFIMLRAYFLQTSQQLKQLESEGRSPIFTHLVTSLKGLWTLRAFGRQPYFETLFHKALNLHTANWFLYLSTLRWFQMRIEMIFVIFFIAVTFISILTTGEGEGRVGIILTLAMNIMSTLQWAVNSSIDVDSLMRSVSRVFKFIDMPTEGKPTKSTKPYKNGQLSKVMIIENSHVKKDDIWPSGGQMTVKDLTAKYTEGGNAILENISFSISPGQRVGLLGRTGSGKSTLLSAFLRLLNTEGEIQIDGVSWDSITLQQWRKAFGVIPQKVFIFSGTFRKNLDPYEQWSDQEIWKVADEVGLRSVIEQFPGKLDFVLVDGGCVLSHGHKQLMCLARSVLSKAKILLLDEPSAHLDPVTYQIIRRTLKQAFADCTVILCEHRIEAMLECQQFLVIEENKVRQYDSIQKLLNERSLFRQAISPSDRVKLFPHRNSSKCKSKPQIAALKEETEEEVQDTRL

## COc1ccc2c(c1)O[C@@H](c1ccc(C(=O)O)cc1)C[C@H]2NC(=O)C1(c2ccc3c(c2)OC(F)(F)O3)CC1 [C1]
[1]; binding to wild-type CFTR membrane fractions, control membrane fractions subtracted, one-site binding fit
  Kd: 94.7 ± 26.5 nM
[1]; comment on Table 1
  binding affinity to the membrane fraction of CFTR (in words): binding affinity similar to the known correctors acting on CFTR

## CC(C)(C)c1cc(C(C)(C)C)c(NC(=O)c2c[nH]c3ccccc3c2=O)cc1O [VX-770]
F508del-CFTR
  therapeutic efficacy in patients: no significant therapeutic efficacy

## gentamicin
CFTR
  change in Nasal Potential Difference (NPD) values: small changes

Reference: patent US20170100374A1, “POTENTIATOR-CORRECTOR COMBINATIONS USEFUL IN THE TREATMENT OF CYSTIC FIBROSIS” (AbbVie S.à.r.l., priority 2015, published 2017)
